Results reported in patent US20130303439A1, “CHIMERIC PEPTIDES INCLUDING A PENETRATING PEPTIDE AND A BINDING DOMAIN OF PP2A CATALYTIC SUBUNIT TO CASPASE-9” (Institut National de la Sante et de la Recherche Medicale …, priority 2010, published 2013).

Tests used:
[1] = system: TS1αβ cells; test: Cell death assay (annexin V / PI flow cytometry); assay type: cell-based, murine; conditions: peptides at 150 μM
Procedure: (§1) An Annexin-V-FITC conjugated kit (Roche) was used for the assessment of outer leaflet exposure of phosphatidylserine (PS) in the plasma membrane of apoptotic cells. Staining was performed according to the manufacturer's instructions. A total of […] cells were analyzed by flow cytometry in a FACSCalibur cytofluometer (BD Biosciences). Necrotic cells were excluded by propidium iodide (PI) staining, and single annexin V positive cells were considered apoptotic. For apoptotic analysis the different peptides were used at 150 μM.
Using flow cytometry detection of annexin V and PI, the inventors analyzed the capacity of DPT-C9 to induce apoptosis in TS1αβ cells cultured in presence of IL-2. In contrast to non penetrating C9 peptide, DPT-C9 induced a 6-fold increase of apoptosis.

[2] = system: Jurkat; test: Cell death assay (annexin V / PI flow cytometry); assay type: cell-based, human; conditions: peptides at 150 μM
Procedure: as §1

[3] = system: Daudi; test: Cell death assay (annexin V / PI flow cytometry); assay type: cell-based, human; conditions: peptides at 150 μM
Procedure: as §1

[4] = system: HeLa; test: Cell death assay (annexin V / PI flow cytometry); assay type: cell-based, human; conditions: peptides at 150 μM
Procedure: as §1

[5] = system: CTLL; test: Cell death assay (annexin V / PI flow cytometry); assay type: cell-based; conditions: murine CTLL; peptides at 150 μM
Procedure: as §1

[6] = system: Daudi cells; test: Apoptosis assay (Annexin V-FITC), Example 2; assay type: cell-based, human; conditions: FIG. 1: 100 microM, 12 and 24 h, method says 150 mM, compared to control non-treated
Procedure: FIG. 1. Daudi cell line was cultured in RPMI 1640 medium in the presence of DPT-PP2Ah peptide (100 microM). At 12 and 24 h, we analyze the apoptotic effect of the peptide by annexine stainin.
(§2) Annexin V-FITC kit was used for detection of apoptosis and staining was performed according to the manufacturer's instructions. A total of 1×10^5 cells were analyzed by flow cytometry in a FACSCalibur cytometer (BD Biosicences). Necrotic cells were excluded by PI staining and annexin V positive cells were considered apoptotic. The effect of DPT-PP2Ah was compared to untreated control cells or to DPT-C9h-treated cells. Penetrating peptides were used at […]. The shuttle alone (DPT-sh1) was also used as a control.

[7] = system: primary cells isolated from xenograft model of breast cancer (BC52); test: Apoptosis by annexin staining in primary cells from xenograft model; assay type: cell-based; conditions: 100 microM, 16 h, compared to control non-treated cells
Procedure: (§3) FIG. 2 Cell isolated form xenograft models of lung cancer (LCF25), breast cancer (BC52) and uveal melanoma (KMP41) were cultured in DMEM medium in the absence (control) or in the presence of 100 microM of DPT-PP2Ah peptide. After 16 h of culture, apoptosis was estimated by annexin staining.
as §2

[8] = system: primary cells isolated from xenograft model of uveal melanoma (KMP41); test: as above; assay type: cell-based; conditions: 100 microM, 16 h, compared to control non-treated cells
Procedure: as §3, §2

[9] = system: primary cells isolated from xenograft model of lung cancer (LCF25); test: as above; assay type: cell-based; conditions: 100 microM, 16 h, compared to control non-treated cells
Procedure: as §3, §2

[10] = system: triple negative breast cancer model BC11; test: In vivo tumor growth inhibition of primary human breast cancer xenografts; set-up: species or system mice; conditions: once daily for 5 weeks
From the text: The primary human xenografts were obtained as previously described (Marangoni et al., (2007) Clin Cancer Res 13:3989-3998, de Plater et al., (2010) Br J Cancer 103:1192-1200. Spontaneously growing mammary tumors […] were xenografted into nude immunodeficient mice to allow pharmacological assessments, and maintained from nude mouse to nude mouse serially passages.
For therapeutic experimental assays, 5- to 8-week old Swiss nu/nu female mice received a subcutaneous graft of tumor fragments with a volume of approximately 15 mm^3. Tumors developed at the graft site 2 to 6 weeks later. Mice bearing growing tumors with a volume of 40 to 200 mm^3 were individually identified and randomly assigned to the control or treatment groups (9-10 animals in each group) and treatments were started on day 1. Mice were weighed twice a week. Tumour-bearing mice were sacrificed when the tumor volume reached 2500 mm^3, defined as the ethical limit. Tumor volumes and antitumor activity were evaluated as previously reported (Marangoni et al., (2007) Clin Cancer Res 13:3989-3998).
DPT-PP2Ah peptide diluted in water/glucose (1 to 25 mg/kg) was given by intraperitoneally route 7 days per week.
To evaluate the potential antitumor effect of DPT-PP2Ah, we treated mice bearing the triple negative breast cancer model BC11. […]

Substance | induction of apoptosis / cell death (in words) [1] | increase of apoptosis [2] | increase of apoptosis [3] | increase of apoptosis [4] | cell death (in words) [5] | apoptosis (annexin staining) [6] | apoptosis (annexin staining) [7] | apoptosis (annexin staining) [8] | apoptosis (annexin staining) [9] | tumor growth inhibition (TGI) ([10]; 1 mg/kg intraperitoneally, relative to 5 mg/kg) | tumor growth inhibition (TGI) ([10]; 5 mg/kg intraperitoneally, end of treatment)
VKKKKIKREIKI-YVETLDGIFEQWAHSEDL (VKKKKIKREIKIYVETLDGIFEQWAHSEDL; Synthetic human DPT-C9) [DPT-C9h] | unable to cause cell death | 5 fold | 5 fold | 5 fold | unable to cause cell death | lower apoptosis |  |  |  |  | 
VKKKKIKREIKIDTLDHIRALDRLQEVPHEGP (Synthetic DPT-PP2Ah) |  |  |  |  |  | strongly induces apoptosis | induces apoptosis | induces apoptosis | induces apoptosis | lower | significant tumor growth inhibition
